The values that follow come from patent US20080070249A1, “Novel Activating Agent of Glucose Uptake and a Screening Method Therefor” (ASTELLAS PHARMA INC., priority 2005, published 2008).

One test relates to human PGC-1β promoter. Kind of test: human PGC-1β promoter luciferase reporter (phPGC1β (1.0) Luc) in L6 cells. Format: cell-based. To be noted: final concentration of 1 μmol/L to 10 μmol/L, 24 hours. As to the method:
phPGC1β (1.0) Luc plasmid constructed in Example 9, in accordance with the following procedures. L6 cells were cultivated in a tissue culture dish having a diameter of 10 cm to become 80% confluent. The cells were cotransfected with 5 μg of the phPGC1β (1.0) Luc plasmid and 1 μg of plasmid pCH110 (Pharmacia Biotech) using a regent for transfection (FuGENE™ T6, Roche, Cat. No. 1815091). In this connection, the plasmid pCH110 containing a β-galactosidase gene regulated by a β-actin promoter was used to standardize an efficiency of transfection. After 24 hours from the transfection, the cells were transferred to a 96-well tissue culture dish, and further cultured for 6 hours. Since it was reported that the combination of forskolin and dexamethasone induced an expression of endogenous PGC-1 in hepatocytes [J. Biol. Chem., 278: 30843 (2003)], the cells were treated with 10 μmol/L (final concentration) forskolin and 1 μmol/L dexamethasone [solvent=dimethyl sulfoxide (DMSO)] for 24 hours. After the treatment, the cells were lysed with a solution for cell lysis (LCβ; Toyo Ink, Japan), and a luciferase activity therein was measured using a PicaGene luminescence kit (Toyo Ink, Japan, 309-04321). In this connection, the activity was measured 3 times per group, and each experiment was repeated at least twice, to confirm the reproducibility. […]

In a further test the test system is differentiated L6 cells. Description: activity of glucose uptake (2-deoxy-D-[U-14C] glucose) in differentiated L6 cells. It counts as cell-based, rat. To be noted: compound at 1 μmol/L to 10 μmol/L for 24 hours, FIG. 5. As to the method: A tissue into which the largest amount of glucose can be incorporated in a living body is muscle. In this example and the following examples, a rat myoblast L6 was used to detect an activity of glucose uptake in vitro. L6 cells (ATCC, CRL-1458) were maintained in a Dulbecco's modified Eagle's medium (GIBCO BRL, USA, 11995-065) supplemented with 10% fetal bovine serum (JRH BIOSCIENCES, Cat. No. 12303-500M), and cultured in a humid atmosphere containing 5% CO2 at 37° C. When the L6 cells were confluent, the medium was changed to a Dulbecco's modified Eagle's medium supplemented with 2% horse serum (GIBCO, Cat. No. 16050), and further cultured for 5 days to perform an induction of differentiation.
The cells overexpressing human PGC-1β or human PGC-1α, prepared in accordance with the procedures described in Example 4, were used to measure an activity of glucose uptake. After 48 hours from the infection, the cells were rinsed with 1 mL of a KRP buffer ([…], 4.7 mmol/L KCl, 1.25 mmol/L CaCl2.2H2O, 1.25 mmol/L MgSO4.7H2O, and 5 mmol/L Na2HPO4.12H2O), and further cultured in 500 μL of KRP for 1 hour. […] Each lysate was mixed with 2 mL of a liquid scintillator (AQUASOL 2, PERKINELMER, Cat. No. 6NE9529), and an amount of radiolabeled compound (radioactivity, CPM) incorporated into the cells was measured using a liquid scintillation counter (PACKARD, B2500TR). […]

Each structure is given as a SMILES string.

Consider `Nc1cccc(-c2nc3cc(C(=O)c4ccccc4)ccc3[nH]2)c1` [compound A, 2-(3-aminophenyl)-5-benzoyl-(1H)-benzimidazole], for which the “activating activity of the human PGC-1β promoter (reporter luciferase activity) in comparison with absence of the compound” value in the test with human PGC-1β promoter is given as not below 2 times. Moreover, the “activity of glucose uptake in muscle cells” value in the test on differentiated L6 cells was “significantly activated glucose uptake”.
